Laboratory results from PMC8672821, “Investigating 3,3-diaryloxetanes as potential bioisosteres through matched molecular pair analysis” (RSC Medicinal Chemistry, 2021).

Experiments:
[1] = elogD, automated reversed phase-HPLC logD (pH 7.4); type: physicochemical; conditions: Supelcosil LC-ABZ column
Protocol: (§1) elogD: An automated reversed phase-HPLC method developed by Lombardo et al. was used for logD (pH 7.4) measurements. All the chromatographic runs were performed on a HP -1100 HPLC ChemStation at the ambient temperature. The HPLC columns used were Supelcosil LC-ABZ, 5 µm, 4.6 mm × 50 mm. A diode array detector was used to monitor signals at 210, 225, 245, and 310 nm. The mobile phase consisted of 15−75% of A and 85−25% of B.
(§2) Mobile phase A: methanol with addition of 0.25% 1-octanol.
(§3) Mobile phase B: 20 mM of MOPS (morpholine−propane−sulfonic acid) buffer prepared in octanol saturated water and 0.25% of n-decylamine.
(§4) Samples were prepared in 1:1 mixture of methanol/water at 100 μg/mL concentration.
The retention of each compound is obtained at three different concentrations of methanol in the mobile phase and extrapolated to 0% methanol (100% water). […]

[2] = Clearance by human liver microsomes (HLM) stability assay; type: in vitro ADME; conditions: pH 7.4; pooled human liver microsomes, 1 µM test compound, 37 °C
Protocol: (§5) HLM Assay: The high throughput human microsomal stability assay was performed in a 384 -well format.
All liquid handling and incubation were conducted with a Biomek FX, equipped with one 3 position Mecour heat exchangers. Pooled human liver microsomes of 50 don ors (Lot: HLM-103) were purchased from BioIVT. Each incubation contained test compound (1 µM), human liver microsomes ([…] CYP protein equivalent to 0.806 mg/mL protein concentration), NADPH (1.3 mM), MgCl 2 (3.3 mM) and potassium phosphate buffer (100 mM at pH 7.4). The final reaction volume was […] containing 0.01% DMSO. The incubations were conducted at 37 °C at various time points (1, 4, 7, 12, 20, 25, 45, 60 min). Cold acetonitrile with mass spectrometry (MS) internal standard (IS, CP-628374) was then added to quench the reaction.
The plates were centrifuged at 3000 rpm for 10 min at 4 °C (Sorvall RC 3C Plus, Thermo Scienti fic, Waltham, MA). The water layer was transferred to the 384 -well plate, sealed and subsequently analy sed using LCeMS/MS. Control plates were prepared in the same manner without adding the NADPH cofactor to monitor any non-CYP catalysed decline. Propranolol (2D6, 1A2 and 2C19 substrate), quinidine (3A4), diclofenac (2C9), verapamil (3A4, 1A2, 2C), amitriptyline (2D6, 2C19) and naloxone (UGT2B7) were used as positive controls on each plate to monitor the activities of the various CYPs in the assay. […]

[3] = Chemical (pH) stability assay; type: physicochemical; conditions: low pH (1.2), 37 °C, up to 4 h
Protocol: as §1, §2, §3, §4
The retention of each compound is obtained at three different concentrations of methanol in the mobile phase and extrapolated to 0% methanol (100% water).
as §5
All liquid handling and incubation were conducted with a Biomek FX, equipped with one 3 position Mecour heat exchangers. Pooled human liver microsomes of 50 don ors (Lot: HLM-103) were purchased from BioIVT. […]
Assay ready plated: Plate containing 6µL at 30 mM of test compounds in 96 deep well plate (volume = 600 µL). […]

[4] = RRCK passive permeability assay; type: in vitro ADME, canine; conditions: dog, MDCK; read-out: RRCK cell permeability
Protocol: Aqueous buffer preparation: pH 3: 50 µL of 1N hydrochloric acid was added to 500 mL of deionized water.
The solution was titrated with 1N hydrochloric acid to pH 3, and back titrated with 1N sodium hydroxide. pH 7.4: 100 mM sodium phosphate buffer is made by adding 56.4 g of dibasic sodium phosphate and 10.3 g of monobasic sodium phosphate to 4 L of deionized water. 250 µL of 100 mM sodium phosphate buffer was diluted with 250 µL of deionized water. The solution was titrated with 1N hydrochloric acid to pH 7.4, and back titrated with 1N sodium hydroxide. pH 10: Fisher Scientific pH 10 buffer (SB116-500) containing potassium hydroxide, potassium carbonate, and potassium borate. pH 12.8: 30 mL of 1N NaOH was added to 200 mL of deionized water. The solution was titrated with 1N sodium hydroxide to pH 12.8, and back titrated with 1N hydrochloric acid.
RRCK: Passive permeability assay were carried out using low‐efflux MDCKII cells (Madin–Darby canine kidney cell line) also called Ralph Russ Canine Kidney cell (RRCK).11

SMILES | chromatographic logD [1] | melting point [°C] | logD (sfLogD) | other results
Cc1cc(C(=O)c2cn(C)c3ccccc23)ccc1-c1cnc(C(F)(F)F)nc1 [4b] | 4.3 | 185 to 187 | 4.21 | –
COc1ccc(C(=O)c2ccc(O)c(C)c2)cc1 [C00006] | – | – | – | microsomal CLint at 1 h, 1 µM [2]: 77.4 µL/min/mg
COc1ccc(C(=O)c2ccc(N3CCOCC3)c(C)c2)cc1 [8b] | 3.9 | – | 3.06 | –
COc1ccc(C2(c3ccc(OC4CNC4)c(C)c3)COC2)cc1 [7a] | 1.43 | 108 to 115 | 1.06 | –
COc1ccc(C2(c3ccc(O)c(C)c3)COC2)cc1 [C00005] | – | – | – | microsomal CLint at 1 h, 1 µM [2]: 80 µL/min/mg
COc1ccc(C2(c3ccc(O)c(C)c3)COC2)cc1 [10a] | 3.07 | 140 to 143 | 3.22 | –
Cc1cc(C2(c3cn(C)c4ccccc34)COC2)ccc1Oc1ccccn1 [3a] | 4.6 | 175 to 177 | 4.36 | –
COc1ccc(C2(c3ccc(OC4CNC4)c(C)c3)COC2)cc1 [C00007] | – | – | – | microsomal CLint at 1 h, 1 µM [2]: 7.5 µL/min/mg
Cc1cc(C2(c3cn(C)c4ccccc34)COC2)ccc1O [C00001] | – | – | – | microsomal CLint at 1 h, 1 µM [2]: 22.9 µL/min/mg
COc1ccc(C2(c3ccc(-c4c[nH]nc4C(F)(F)F)c(C)c3)COC2)cc1 [9a] | 4.5 | 175 to 177 | 4.62 | –
Cc1cc(Cc2cn(C)c3ccccc23)ccc1OC1CNC1 [1c] | 3.1 | 80 to 82 | 1.68 | –
COc1ccc(C(=O)c2ccc(-c3c[nH]nc3C(F)(F)F)c(C)c2)cc1 [9b] | 4.8 | 207 to 208 | 4.74 | –
COc1ccc(C2(c3ccc(N4CCOCC4)c(C)c3)COC2)cc1 [8a] | 3.68 | 133 to 135 | 3.47 | –
Cn1cc(C2(c3ccc(O)cc3)COC2)c2ccccc21 [6a] | 3.28 | 207 to 209 | 3.27 | –
COc1ccc(C(=O)c2ccc(O)c(C)c2)cc1 [10b] | – | 186 to 187 | 3.49 | –
Cc1cc(C(=O)c2cn(C)c3ccccc23)ccc1OC1CNC1 [C00004] | – | – | – | microsomal CLint at 1 µM [2]: < 7 µL/min/mg
Cc1cc(C(=O)c2cn(C)c3ccccc23)ccc1O [C00002] | – | – | – | microsomal CLint at 1 h, 1 µM [2]: 18 µL/min/mg

SMILES | chromatographic logD [1] | melting point [°C] | logD (sfLogD) | other results
Cc1cc(C(C)(C)c2cn(C)c3ccccc23)ccc1O [5d] | 5.05 | 110 to 112 | 3.72 | –
Cc1cc(C(C)(C)c2cn(C)c3ccccc23)ccc1OC1CNC1 [1d] | 2.9 | 75 to 80 | 2.59 | –
Cc1cc(C(=O)c2cn(C)c3ccccc23)ccc1Oc1ccccn1 [3b] | 3.99 | 123 to 124 | 1.92 | –
Cc1cc(C2(c3cn(C)c4ccccc34)COC2)ccc1-c1cnc(C(F)(F)F)nc1 [4a] | 5.1 | 181 to 182 | – | –
COc1ccc(C(=O)c2ccc(OC3CNC3)c(C)c2)cc1 [7b] | 1.74 | 99 to 103 | 1.21 | –
Cc1cc(C(=O)c2cn(C)c3ccccc23)ccc1OC1CNC1 [1b] | – | 70 to 75 | 1.07 | –
Cc1cc(C(=O)c2cn(C)c3ccccc23)ccc1-c1cnc(C(F)(F)F)nc1 [C00010] | – | – | – | microsomal CLint at 1 µM [2]: < 7 µL/min/mg
Cn1cc(C2(c3ccc(OC4CNC4)cc3)COC2)c2ccccc21 [2a] | 1.7 | – | 0.99 | –
Cc1cc(C2(c3cn(C)c4ccccc34)COC2)ccc1O [5a] | 3.73 | 233 to 235 | 3.63 | chemical stability (% compound remaining), in words [3]: poorer stability at low pH
Cc1cc(C2(c3cn(C)c4ccccc34)COC2)ccc1-c1cnc(C(F)(F)F)nc1 [C00009] | – | – | – | microsomal CLint at 1 h, 1 µM [2]: 8.5 µL/min/mg
Cc1cc(C2(c3cn(C)c4ccccc34)COC2)ccc1OC1CNC1 [1a] | 2.13 | 100 to 103 | 1.37 | –
Cc1cc(C2(c3cn(C)c4ccccc34)CCC2)ccc1O [5e] | 5.4 | 120 to 121 | 4.4 | Papp [4]: 0.1 ×10⁻⁶ cm/s
Cc1cc(Cc2cn(C)c3ccccc23)ccc1O [5c] | 4.78 | 77 to 79 | 2.79 | Papp [4]: 0.1 ×10⁻⁶ cm/s
Cc1cc(C2(c3cn(C)c4ccccc34)COC2)ccc1OC1CNC1 [C00003] | – | – | – | microsomal CLint at 1 µM [2]: < 7 µL/min/mg
Cc1cc(C(=O)c2cn(C)c3ccccc23)ccc1O [5b] | 3.3 | 239 to 241 | 3.33 | chemical stability (% compound remaining), in words [3]: poorer stability at low pH
COc1ccc(C(=O)c2ccc(OC3CNC3)c(C)c2)cc1 [C00008] | – | – | – | microsomal CLint at 1 h, 1 µM [2]: 75 µL/min/mg
Cc1cc(C2(c3cn(C)c4ccccc34)CCC2)ccc1OC1CNC1 [1e] | 3.2 | – | 2.81 | –
